Laboratory results from ChEMBL document CHEMBL3232732, “A,D-seco-limonoids from the stems of Clausena emarginata” (J Nat Prod, 2014).
pIC50: −log10 of the molar value. Calls of active or inactive are those of the source. The calls are words filed in the database; no cut-off is given here.

What was measured:
Format in all cases: functional, cell-based
SK-OV-3 = assay: Cytotoxicity against human SKOV3 cells after 96 hrs by MTT assay; conditions: SK-OV-3, 96 h
BV-2 = assay: Inhibition of LPS-induced NO production in mouse BV2 cells compound pre-treated for 1 hr before LPS addition measured after 24 hrs by Griess assay
[1] = Cytotoxicity against human BGC823 cells after 96 hrs by MTT assay; conditions: BGC-823, 96 h
HCT-116 = assay: Cytotoxicity against human HCT116 cells after 96 hrs by MTT assay; conditions: HCT-116, 96 h
HepG2 = assay: Cytotoxicity against human HepG2 cells after 96 hrs by MTT assay; conditions: HepG2, 96 h
NCI-H1650 = assay: Cytotoxicity against human NCI-H1650 cells after 96 hrs by MTT assay; conditions: NCI-H1650, 96 h

Structure (SMILES)	pIC50 (SK-OV-3)	inhibition (BV-2)	pIC50 [1]	pIC50 (HCT-116)	pIC50 (HepG2)	pIC50 (NCI-H1650)	pIC50 (BV-2)
COC(=O)C[C@H]1OC(C)(C)[C@@H]2CC(=O)[C@]3(C)[C@H]([C@@H](O)C[C@@]4(C)[C@H](C5=CC(=O)OC5O)OC(=O)[C@H]5O[C@]543)[C@@]12C (stereo partly specified)	< 5.00	inactive	< 5.00	< 5.00	< 5.00	< 5.00	
CC1(C)OC(=O)C=C[C@]2(C)[C@H]3[C@@H](O)C[C@@]4(C)[C@H](C5=CC(O)OC5=O)OC(=O)[C@H]5O[C@]54[C@]3(C)C(=O)C[C@@H]12 (stereo partly specified)	< 5.00	inactive	< 5.00	< 5.00	< 5.00	< 5.00	
COC(=O)C[C@H](OC(C)=O)[C@]1(C)[C@H]2[C@@H](O)C[C@@]3(C)[C@H](c4ccoc4)OC(=O)[C@H]4O[C@]43[C@]2(C)C(=O)C[C@H]1C(C)(C)O	< 5.00		< 5.00	< 5.00	< 5.00	< 5.00	5.06
CC(C)(O)[C@@H]1CC(=O)[C@]2(C)[C@@H]3[C@H](C[C@@]4(C)[C@H](c5ccoc5)OC(=O)[C@H]5O[C@]542)OC(=O)C=C[C@]31C	< 5.00	inactive	< 5.00	< 5.00	< 5.00	< 5.00	
CC(=O)O[C@@H](CC(=O)O)[C@]1(C)[C@H]2[C@@H](O)C[C@@]3(C)[C@H](C4=CC(O)OC4=O)OC(=O)[C@H]4O[C@]43[C@]2(C)C(=O)C[C@H]1C(C)(C)O (relative stereo)	< 5.00	inactive	< 5.00	< 5.00	< 5.00	< 5.00	
COC(=O)C[C@H]1OC(C)(C)[C@@H]2CC(=O)[C@]3(C)[C@H]([C@@H](O)C[C@@]4(C)[C@H](c5ccoc5)OC(=O)[C@H]5O[C@]543)[C@@]12C	< 5.00		< 5.00	< 5.00	< 5.00	< 5.00	5.00
COC(=O)C[C@@H]1OC(C)(C)[C@@H]2CC(=O)[C@]3(C)[C@H]([C@@H](O)C[C@@]4(C)[C@H](c5ccoc5)OC(=O)[C@H]5O[C@]543)[C@@]12C	< 5.00		< 5.00	< 5.00	< 5.00	< 5.00	5.17
COc1cc(/C=C/C(=O)CC(=O)/C=C/c2ccc(O)c(OC)c2)ccc1O [CURCUMIN]							6.30
CCOC(=O)C[C@H](OC(C)=O)[C@]1(C)[C@H]2[C@@H](O)C[C@@]3(C)[C@H](c4ccoc4)OC(=O)[C@H]4O[C@]43[C@]2(C)C(=O)C[C@H]1C(C)(C)O	< 5.00		< 5.00	< 5.00	< 5.00	< 5.00	5.29
CC(=O)O[C@H]1CC(=O)OC(C)(C)[C@@H]2CC(=O)[C@]3(C)[C@H]([C@@H](O)C[C@@]4(C)[C@H](c5ccoc5)OC(=O)[C@H]5O[C@]543)[C@@]12C	< 5.00	inactive	< 5.00	< 5.00	< 5.00	< 5.00	
CC(=O)O[C@H]1CC(=O)OC(C)(C)[C@@H]2CC(=O)[C@]3(C)[C@H]([C@@H](O)C[C@@]4(C)[C@H](C5=CC(O)OC5=O)OC(=O)[C@H]5O[C@]543)[C@@]12C (stereo partly specified)	< 5.00	inactive	< 5.00	< 5.00	< 5.00	< 5.00	
CC1(C)OC(=O)C=C[C@]2(C)[C@H]3[C@@H](O)C[C@@]4(C)[C@H](c5ccoc5)OC(=O)[C@H]5O[C@]54[C@]3(C)C(=O)C[C@@H]12	< 5.00		< 5.00	< 5.00	< 5.00	< 5.00	5.28
COC(=O)C[C@H]1OC(C)(C)[C@@H]2CC(=O)[C@]3(C)[C@H]([C@@H](O)C[C@@]4(C)[C@H](C5=CC(O)OC5=O)OC(=O)[C@H]5O[C@]543)[C@@]12C (relative stereo)	< 5.00	inactive	< 5.00	< 5.00	< 5.00	< 5.00	
CC(=O)O[C@H]1CC(=O)OC(C)(C)[C@@H]2CC(=O)[C@]3(C)[C@H]([C@@H](O)C[C@@]4(C)[C@H](C5=CC(=O)OC5O)OC(=O)[C@H]5O[C@]543)[C@@]12C (relative stereo)	< 5.00	inactive	< 5.00	< 5.00	< 5.00	< 5.00	
COC(=O)C[C@H](O)[C@]1(C)[C@H]2[C@@H](O)C[C@@]3(C)[C@H](c4ccoc4)OC(=O)[C@H]4O[C@]43[C@]2(C)C(=O)C[C@H]1C(C)(C)O	< 5.00		< 5.00	< 5.00	< 5.00	< 5.00	5.15
CC1(C)OC(=O)C=C[C@]2(C)[C@H]3[C@@H](O)C[C@@]4(C)[C@@H](C5=CC(=O)OC5O)OC(=O)[C@H]5O[C@]54[C@]3(C)C(=O)C[C@@H]12 (stereo partly specified)	< 5.00	inactive	< 5.00	< 5.00	< 5.00	< 5.00	
